Here are results for 15 compounds from patent publication US20240409585A1, “MACROCYCLIC IMMUNOMODULATORS” (priority 2021, published 2024).

Numbered stars: 1 amine (or outer) side, 2 acyl side, 3 side chain; on linkers, the order of the positions; unused ones are H or OH. Bridge positions count the residues as written; N and C are the ends. Square brackets hold non-standard residues; d marks the D form. Peptide text beside a SMILES is read from it. * marks the point of attachment. ξ: configuration not given here. Phe(3-CF3) = N[C@@H](Cc1cccc(C(F)(F)F)c1)C(=O)O; Phe(4-COOH) = N[C@@H](Cc1ccc(C(=O)O)cc1)C(=O)O; X27 = O=C([C@H](Cc1ccc2ncccc2c1)N[*:1])[*:2]; Bip = N[C@@H](Cc1ccc(-c2ccccc2)cc1)C(=O)O; Phe(3-CN) = N#Cc1cccc(C[C@H](N)C(=O)O)c1; Phe(3-Me) = Cc1cccc(C[C@H](N)C(=O)O)c1; Bta = N[C@@H](Cc1csc2ccccc12)C(=O)O; Val(3-OH) = CC(C)(O)[C@H](N)C(=O)O; X49 = O=C(C(N[*:1])C1CCOCC1)[*:2]; 3Pal = N[C@@H](Cc1cccnc1)C(=O)O; Cha = N[C@@H](CC1CCCCC1)C(=O)O; Ile(3ξ) = CCC(C)[C@H](N)C(=O)O; Thr(3ξ) = CC(O)[C@H](N)C(=O)O; dNle = CCCC[C@@H](N)C(=O)O; Carboxymethyl = O=C(O)C*; NMeA = CN[C@@H](C)C(=O)O; Nle = CCCC[C@H](N)C(=O)O; Orn = NCCC[C@H](N)C(=O)O; dDap = NC[C@@H](N)C(=O)O; Dab = NCC[C@H](N)C(=O)O; Dap = NC[C@H](N)C(=O)O

T1 sequence (Q15116 25-288): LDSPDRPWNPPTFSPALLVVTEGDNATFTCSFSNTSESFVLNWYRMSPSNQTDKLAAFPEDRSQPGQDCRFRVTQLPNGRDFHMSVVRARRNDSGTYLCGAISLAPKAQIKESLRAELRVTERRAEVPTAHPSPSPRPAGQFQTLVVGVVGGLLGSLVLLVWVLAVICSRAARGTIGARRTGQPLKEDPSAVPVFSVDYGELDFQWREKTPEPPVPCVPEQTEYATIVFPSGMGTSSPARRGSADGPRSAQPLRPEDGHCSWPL

This experiment has as its target T1, PE-labeled human PD-L1-Ig binding to Jurkat cell line over-expressing human PD-1 (Jurkat-PD-1) (Homo sapiens, UniProt Q15116).
T1 construct: expressed in transfected cells; host or cells: Jurkat
Nature of the experiment: Jurkat-PD-1 Cell Binding High-Content Screening Assay (CBA): Method 1. Particulars: Jurkat-hPD-1 cells, PE-labeled PD-L1-Ig 20 nM final; read-out: Jurkat HPDL1 PD1 IC50 (uM) (Method 1).
A word on the IC50: it is the concentration that gives 50% inhibition. With `CC(C)C[C@@H]1NC(=O)[C@H](CCCN)NC(=O)[C@H](Cc2csc3ccccc23)NC(=O)[C@H](C)N(C)C(=O)[C@H](CCCNC(=N)N)NC(=O)[C@H](Cc2ccc(-c3ccccc3)cc2)NC(=O)[C@H](C(C)C)NC(=O)[C@H](Cc2c[nH]c3ccccc23)NC(=O)[C@H](CC(=O)O)NC(=O)[C@H](Cc2ccc(O)cc2)NC(=O)[C@H](Cc2ccccc2)NC(=O)CSC[C@@H](C(=O)N[C@@H](C)C(N)=O)NC(=O)[C@H]([C@@H](C)O)NC(=O)[C@H](C(C)C)NC1=O` [Compound 1120] ({CH2CO}-FYDWV[Bip]R[NMeA][Bta][Orn]LVTCA-NH2; thioether N-14), the IC50 is 0.27 µM.
To `CC(C)C[C@H]1NC(=O)[C@H](C)N(C)C(=O)[C@H](C(C)C)NC(=O)[C@H](Cc2ccc(-c3ccccc3)cc2)NC(=O)[C@H](C(C)C)NC(=O)[C@H](Cc2c[nH]c3ccccc23)NC(=O)[C@H](CC(=O)O)NC(=O)[C@H](Cc2ccc(O)cc2)NC(=O)[C@H](Cc2ccccc2)NC(=O)CSC[C@@H](C(=O)N[C@@H](C)C(N)=O)NC(=O)[C@H]([C@@H](C)O)NC(=O)[C@H](C(C)C)NC(=O)[C@H](CC2CCCCC2)NC(=O)[C@H](CCCNC(=N)N)NC1=O` [Compound 1487] ({CH2CO}-FYDWV[Bip]V[NMeA][dL]R[Cha]VTCA-NH2; thioether N-14) belongs 0.32 µM.
Turning to `CC(C)C[C@@H]1NC(=O)[C@H](CCCNC(=N)N)NC(=O)[C@@H](CC(C)C)NC(=O)[C@H](C)N(C)C(=O)[C@H](CCCNC(=N)N)NC(=O)[C@H](Cc2ccc(-c3ccccc3)cc2)NC(=O)[C@H](C(C)C)NC(=O)[C@H](Cc2cccc(C(F)(F)F)c2)NC(=O)[C@H](CC(=O)O)NC(=O)[C@H](Cc2ccc(O)cc2)NC(=O)[C@H](CC(N)=O)NC(=O)CSC[C@@H](C(=O)N[C@@H](C)C(N)=O)NC(=O)[C@H]([C@@H](C)O)NC(=O)[C@H](C(C)C)NC1=O` [Compound 1198] ({CH2CO}-NYD[Phe(3-CF3)]V[Bip]R[NMeA][dL]RLVTCA-NH2; thioether N-14), the IC50 is 0.06 µM.
In the case of `CC[C@H](C)[C@@H]1NC(=O)[C@H](Cc2ccc(-c3ccccc3)cc2)NC(=O)[C@H](C(C)C)NC(=O)[C@H](Cc2c[nH]c3ccccc23)NC(=O)[C@H](CC(=O)O)NC(=O)[C@H](Cc2ccc(O)cc2)NC(=O)[C@H](CC(N)=O)NC(=O)CSC[C@@H](C(=O)N[C@@H](C)C(N)=O)NC(=O)[C@H](CO)NC(=O)[C@H](C(C)C)NC(=O)[C@H](CC(C)C)NC(=O)[C@H](CCCCN)NC(=O)[C@@H](CC(C)C)NC(=O)[C@H](C)N(C)C1=O` [Compound 1480] ({CH2CO}-NYDWV[Bip]I[NMeA][dL]KLVSCA-NH2; thioether N-14), the IC50 stood at 0.04 µM.
`CCC(C)[C@@H]1NC(=O)[C@H](Cc2ccc(-c3ccccc3)cc2)NC(=O)[C@H](C(C)C)NC(=O)[C@H](Cc2c[nH]c3ccccc23)NC(=O)[C@H](CC(=O)O)NC(=O)[C@H](Cc2ccc(O)cc2)NC(=O)[C@H](CCN)NC(=O)CSC[C@@H](C(=O)NC(C(N)=O)C2CCOCC2)NC(=O)[C@H](C(C)O)NC(=O)[C@H](C(C)(C)O)NC(=O)[C@H](CC2CCCCC2)NC(=O)[C@H](CC(N)=O)NC(=O)[C@@H](CC(C)C)NC(=O)[C@H](C)N(C)C1=O` (stereo partly drawn) [Compound 2175] ({CH2CO}-[Dab]YDWV[Bip][Ile(3ξ)][NMeA][dL]N[Cha][Val(3-OH)][Thr(3ξ)]C[X49]-NH2; thioether N-14): the IC50 was determined as 0.23 µM.
Consider `CC(C)C[C@@H]1NC(=O)[C@H](Cc2c[nH]c3ccccc23)NC(=O)[C@H](CC(=O)O)NC(=O)[C@H](Cc2ccc(O)cc2)NC(=O)[C@H](Cc2ccccc2)NC(=O)CSC[C@@H](C(=O)N[C@@H](C)C(N)=O)NC(=O)[C@H](CO)NC(=O)[C@H](C(C)C)NC(=O)[C@H](CC(C)C)NC(=O)[C@H](CC(N)=O)NC(=O)[C@@H](CN)NC(=O)[C@H](C)N(C)C(=O)[C@H](C(C)C)NC(=O)[C@H](Cc2ccc(-c3ccccc3)cc2)NC1=O` [Compound 1787] ({CH2CO}-FYDWL[Bip]V[NMeA][dDap]NLVSCA-NH2; thioether N-14), for which the 50% inhibitory concentration (IC50) was 0.1 µM.
As for `CCCC[C@@H]1NC(=O)[C@H](CCCNC(=N)N)NC(=O)[C@@H](CC(C)C)NC(=O)[C@H](C)N(C)C(=O)[C@H](C(C)C)NC(=O)[C@H](Cc2ccc(-c3ccccc3)cc2)NC(=O)[C@H](C(C)C)NC(=O)[C@H](Cc2c[nH]c3ccccc23)NC(=O)[C@H](CC(=O)O)NC(=O)[C@H](Cc2ccc(O)cc2)NC(=O)[C@H](Cc2ccc(OCC(=O)O)cc2)NC(=O)CSC[C@@H](C(=O)N[C@@H](C)C(N)=O)NC(=O)[C@H]([C@@H](C)O)NC(=O)[C@H](C(C)C)NC1=O` [Compound 1501] ({CH2CO}-Y(Carboxymethyl)YDWV[Bip]V[NMeA][dL]R[Nle]VTCA-NH2; thioether N-14), the IC50 was 0.08 µM.
In the case of `CC(C)C[C@@H]1NC(=O)[C@H](CCN)NC(=O)[C@@H](CC(C)C)NC(=O)[C@H](C)N(C)C(=O)[C@H](CCCNC(=N)N)NC(=O)[C@H](Cc2ccc(-c3ccccc3)cc2)NC(=O)[C@H](C(C)C)NC(=O)[C@H](Cc2cccc(C#N)c2)NC(=O)[C@H](CC(=O)O)NC(=O)[C@H](Cc2ccc(C(=O)O)cc2)NC(=O)[C@H](CN)NC(=O)CSC[C@@H](C(=O)N[C@@H](C)C(N)=O)NC(=O)[C@H]([C@@H](C)O)NC(=O)[C@H](C(C)C)NC1=O` [Compound 1461] ({CH2CO}-[Dap][Phe(4-COOH)]D[Phe(3-CN)]V[Bip]R[NMeA][dL][Dab]LVTCA-NH2; thioether N-14), the IC50 was 0.23 µM.
Take `CC(C)C[C@@H]1NC(=O)[C@H](Cc2c[nH]c3ccccc23)NC(=O)[C@H](CC(=O)O)NC(=O)[C@H](Cc2ccc(O)cc2)NC(=O)[C@H](Cc2cccnc2)NC(=O)CSC[C@@H](C(=O)NCC(N)=O)NC(=O)[C@H](CO)NC(=O)[C@H](C(C)C)NC(=O)[C@H](CC(C)C)NC(=O)[C@H](CC(N)=O)NC(=O)[C@@H](C)NC(=O)[C@H](C)N(C)C(=O)[C@H](C(C)C)NC(=O)[C@H](Cc2ccc(-c3ccccc3)cc2)NC1=O` [Compound 1743] ({CH2CO}-[3Pal]YDWL[Bip]V[NMeA][dA]NLVSCG-NH2; thioether N-14): the IC50 came to 0.02 µM.
Consider `CC(C)C[C@@H]1NC(=O)[C@H](CCCNC(=N)N)NC(=O)[C@@H](CC(C)C)NC(=O)[C@H](C)N(C)C(=O)[C@H](CCCNC(=N)N)NC(=O)[C@H](Cc2ccc(-c3ccccc3)cc2)NC(=O)[C@H](C(C)C)NC(=O)[C@H](Cc2c[nH]c3ccccc23)NC(=O)[C@H](CC(=O)O)NC(=O)[C@H](Cc2ccc(O)cc2)NC(=O)[C@H](CC(N)=O)NC(=O)CSC[C@@H](C(=O)NCC(N)=O)NC(=O)[C@H]([C@@H](C)O)NC(=O)[C@H](C(C)C)NC1=O` [Compound 1244] ({CH2CO}-NYDWV[Bip]R[NMeA][dL]RLVTCG-NH2; thioether N-14), for which the IC50 worked out at 0.04 µM.
On to `CCCC[C@H]1NC(=O)[C@H](C)N(C)C(=O)[C@H](C(C)C)NC(=O)[C@H](Cc2ccc(-c3ccccc3)cc2)NC(=O)[C@H](CC(C)C)NC(=O)[C@H](Cc2c[nH]c3ccccc23)NC(=O)[C@H](CC(=O)O)NC(=O)[C@H](Cc2ccc(O)cc2)NC(=O)[C@H](Cc2ccccc2)NC(=O)CSC[C@@H](C(=O)N[C@@H](C)C(N)=O)NC(=O)[C@H](CO)NC(=O)[C@H](C(C)C)NC(=O)[C@H](CC(C)C)NC(=O)[C@H](CC(N)=O)NC1=O` [Compound 1753] ({CH2CO}-FYDWL[Bip]V[NMeA][dNle]NLVSCA-NH2; thioether N-14), for which the IC50 was found to be 0.03 µM.
As for `CCC(C)[C@@H]1NC(=O)[C@H](Cc2ccc(-c3ccccc3)cc2)NC(=O)[C@H](C(C)C)NC(=O)[C@H](Cc2c[nH]c3ccccc23)NC(=O)[C@H](CC(=O)O)NC(=O)[C@H](Cc2ccc(O)cc2)NC(=O)[C@H](Cc2ccc3ncccc3c2)NC(=O)CSC[C@@H](C(=O)N[C@@H](C)C(N)=O)NC(=O)[C@H](C(C)O)NC(=O)[C@H](C(C)C)NC(=O)[C@H](CC2CCCCC2)NC(=O)[C@H](CCN)NC(=O)[C@@H](CC(C)C)NC(=O)[C@H](C)N(C)C1=O` (stereo partly drawn) [Compound 2045] ({CH2CO}-[X27]YDWV[Bip][Ile(3ξ)][NMeA][dL][Dab][Cha]V[Thr(3ξ)]CA-NH2; thioether N-14), the IC50 was found to be 0.01 µM.
`CC(C)C[C@@H]1NC(=O)[C@H](Cc2c[nH]c3ccccc23)NC(=O)[C@H](CC(=O)O)NC(=O)[C@H](Cc2ccc(OCC(=O)O)cc2)NC(=O)[C@H](C(C)O)NC(=O)CSC[C@@H](C(N)=O)NC(=O)[C@H](CO)NC(=O)[C@H](C(C)C)NC(=O)[C@H](CC2CCCCC2)NC(=O)[C@H](Cc2cnc[nH]2)NC(=O)[C@@H](CC(C)C)NC(=O)[C@H](C)N(C)C(=O)[C@H](C(C)C)NC(=O)[C@H](Cc2ccc(-c3ccccc3)cc2)NC1=O` (stereo partly drawn) [Compound 2253] ({CH2CO}-[Thr(3ξ)]Y(Carboxymethyl)DWL[Bip]V[NMeA][dL]H[Cha]VSC-NH2; thioether N-14): the IC50 was found to be 0.04 µM.
In the case of `Cc1cccc(C[C@@H]2NC(=O)[C@H](CC(=O)O)NC(=O)[C@H](Cc3ccc(OCC(=O)O)cc3)NC(=O)[C@H]([C@@H](C)O)NC(=O)CSC[C@@H](C(N)=O)NC(=O)[C@H](CC(N)=O)NC(=O)[C@H](C(C)C)NC(=O)[C@H](CC3CCCCC3)NC(=O)[C@H](CCN)NC(=O)[C@@H](CC(C)C)NC(=O)[C@H](C)N(C)C(=O)[C@H](Cc3ccc(OCC(=O)O)cc3)NC(=O)[C@H](Cc3ccc(-c4ccccc4)cc3)NC(=O)[C@H](Cc3ccc(OCC(=O)O)cc3)NC2=O)c1` [Compound 1669] ({CH2CO}-TY(Carboxymethyl)D[Phe(3-Me)]Y(Carboxymethyl)[Bip]Y(Carboxymethyl)[NMeA][dL][Dab][Cha]VNC-NH2; thioether N-14), the IC50 was 0.06 µM.
`CC(C)C[C@@H]1NC(=O)[C@H](CCN)NC(=O)[C@@H](CC(C)C)NC(=O)[C@H](C)N(C)C(=O)[C@H](CCCNC(=N)N)NC(=O)[C@H](Cc2ccc(-c3ccccc3)cc2)NC(=O)[C@H](C(C)C)NC(=O)[C@H](Cc2c[nH]c3ccccc23)NC(=O)[C@H](CC(=O)O)NC(=O)[C@H](Cc2ccc(OCC(=O)O)cc2)NC(=O)[C@H](Cc2cnc[nH]2)NC(=O)CSC[C@@H](C(=O)N[C@@H](C)C(N)=O)NC(=O)[C@H]([C@@H](C)O)NC(=O)[C@H](C(C)C)NC1=O` [Compound 1150] ({CH2CO}-HY(Carboxymethyl)DWV[Bip]R[NMeA][dL][Dab]LVTCA-NH2; thioether N-14): the IC50 came out at 0.05 µM.
